Measured values as given in the NIST ThermoML archive (doi:10.1016/j.jct.2017.03.006).
± gives the expanded uncertainty stated by the source.

Assay: xn = mol fraction of the nth substance listed
Conditions: Liquid; for viscosity: Concentric cylinders viscometry; for mass density: Vibrating tube method

Cc1ccc(C)c(C)c1 [1,2,4-trimethylbenzene] + CCC(C)O
Conditions	mass density [kg/m3]	viscosity [mPa·s]
323.15 K, 100 kPa, x2 = 0.7001	–	0.78 ± 0.017
323.15 K, 100 kPa, x2 = 0.7997	–	0.88 ± 0.019
323.15 K, 100 kPa, x2 = 0.9001	–	1.04 ± 0.022
333.15 K, 100 kPa, x2 = 0	843.6 ± 0.7	0.562 ± 0.012
333.15 K, 100 kPa, x2 = 0.1	835.7 ± 0.7	–
333.15 K, 100 kPa, x2 = 0.1001	–	0.558 ± 0.012
333.15 K, 100 kPa, x2 = 0.1989	829.2 ± 0.7	–
333.15 K, 100 kPa, x2 = 0.2261	–	0.554 ± 0.012
333.15 K, 100 kPa, x2 = 0.3	–	0.548 ± 0.012
333.15 K, 100 kPa, x2 = 0.3011	822.5 ± 0.7	–
333.15 K, 100 kPa, x2 = 0.3966	–	0.568 ± 0.013
333.15 K, 100 kPa, x2 = 0.4002	816 ± 0.7	–
333.15 K, 100 kPa, x2 = 0.5001	809.8 ± 0.7	–
333.15 K, 100 kPa, x2 = 0.5298	–	0.567 ± 0.012
333.15 K, 100 kPa, x2 = 0.5997	802.2 ± 0.7	–
333.15 K, 100 kPa, x2 = 0.6001	–	0.6 ± 0.013
333.15 K, 100 kPa, x2 = 0.6999	794.7 ± 0.7	–
333.15 K, 100 kPa, x2 = 0.7001	–	0.65 ± 0.014
333.15 K, 100 kPa, x2 = 0.7997	–	0.72 ± 0.016
333.15 K, 100 kPa, x2 = 0.7999	787.1 ± 0.7	–
333.15 K, 100 kPa, x2 = 0.9	779.1 ± 0.7	–
333.15 K, 100 kPa, x2 = 0.9001	–	0.82 ± 0.018
333.15 K, 1000 kPa, x2 = 0	844.4 ± 0.7	–
333.15 K, 1000 kPa, x2 = 0.1	836.5 ± 0.7	–
333.15 K, 1000 kPa, x2 = 0.1989	830 ± 0.7	–
333.15 K, 1000 kPa, x2 = 0.3011	823.3 ± 0.7	–
333.15 K, 1000 kPa, x2 = 0.4002	816.8 ± 0.7	–
333.15 K, 1000 kPa, x2 = 0.5001	810.7 ± 0.7	–
333.15 K, 1000 kPa, x2 = 0.5997	803.1 ± 0.7	–
333.15 K, 1000 kPa, x2 = 0.6999	795.6 ± 0.7	–
333.15 K, 1000 kPa, x2 = 0.7999	788 ± 0.7	–
333.15 K, 1000 kPa, x2 = 0.9	780 ± 0.7	–
333.15 K, 2000 kPa, x2 = 0	845.2 ± 0.7	–
333.15 K, 2000 kPa, x2 = 0.1	837.4 ± 0.7	–
333.15 K, 2000 kPa, x2 = 0.1989	830.9 ± 0.7	–
333.15 K, 2000 kPa, x2 = 0.3011	824.2 ± 0.7	–
333.15 K, 2000 kPa, x2 = 0.4002	817.8 ± 0.7	–
333.15 K, 2000 kPa, x2 = 0.5001	811.7 ± 0.7	–
333.15 K, 2000 kPa, x2 = 0.5997	804 ± 0.7	–
333.15 K, 2000 kPa, x2 = 0.6999	796.6 ± 0.7	–
333.15 K, 2000 kPa, x2 = 0.7999	789 ± 0.7	–
333.15 K, 2000 kPa, x2 = 0.9	781 ± 0.7	–
333.15 K, 5000 kPa, x2 = 0	847.6 ± 0.7	–
333.15 K, 5000 kPa, x2 = 0.1	840 ± 0.7	–
333.15 K, 5000 kPa, x2 = 0.1989	833.5 ± 0.7	–
333.15 K, 5000 kPa, x2 = 0.3011	826.9 ± 0.7	–
333.15 K, 5000 kPa, x2 = 0.4002	820.4 ± 0.7	–
333.15 K, 5000 kPa, x2 = 0.5001	814.4 ± 0.7	–
333.15 K, 5000 kPa, x2 = 0.5997	806.9 ± 0.7	–
333.15 K, 5000 kPa, x2 = 0.6999	799.5 ± 0.7	–
333.15 K, 5000 kPa, x2 = 0.7999	791.9 ± 0.7	–
333.15 K, 5000 kPa, x2 = 0.9	784 ± 0.7	–
333.15 K, 10000 kPa, x2 = 0	851.4 ± 0.7	–
333.15 K, 10000 kPa, x2 = 0.1	843.9 ± 0.7	–
333.15 K, 10000 kPa, x2 = 0.1989	837.6 ± 0.7	–
333.15 K, 10000 kPa, x2 = 0.3011	831.1 ± 0.7	–
333.15 K, 10000 kPa, x2 = 0.4002	824.7 ± 0.7	–
333.15 K, 10000 kPa, x2 = 0.5001	818.7 ± 0.7	–
333.15 K, 10000 kPa, x2 = 0.5997	811.3 ± 0.7	–
333.15 K, 10000 kPa, x2 = 0.6999	803.9 ± 0.7	–
333.15 K, 10000 kPa, x2 = 0.7999	796.5 ± 0.7	–
333.15 K, 10000 kPa, x2 = 0.9	788.6 ± 0.7	–
333.15 K, 15000 kPa, x2 = 0	855.1 ± 0.7	–
333.15 K, 15000 kPa, x2 = 0.1	847.9 ± 0.7	–
333.15 K, 15000 kPa, x2 = 0.1989	841.6 ± 0.7	–
333.15 K, 15000 kPa, x2 = 0.3011	835.1 ± 0.7	–
333.15 K, 15000 kPa, x2 = 0.4002	828.8 ± 0.7	–
333.15 K, 15000 kPa, x2 = 0.5001	822.9 ± 0.7	–
333.15 K, 15000 kPa, x2 = 0.5997	815.5 ± 0.7	–
333.15 K, 15000 kPa, x2 = 0.6999	808.2 ± 0.7	–
333.15 K, 15000 kPa, x2 = 0.7999	800.8 ± 0.7	–
333.15 K, 15000 kPa, x2 = 0.9	793 ± 0.7	–
333.15 K, 20000 kPa, x2 = 0	858.6 ± 0.7	–
333.15 K, 20000 kPa, x2 = 0.1	851.6 ± 0.7	–
333.15 K, 20000 kPa, x2 = 0.1989	845.4 ± 0.7	–
333.15 K, 20000 kPa, x2 = 0.3011	839 ± 0.7	–
333.15 K, 20000 kPa, x2 = 0.4002	832.7 ± 0.7	–
333.15 K, 20000 kPa, x2 = 0.5001	826.9 ± 0.7	–
333.15 K, 20000 kPa, x2 = 0.5997	819.5 ± 0.7	–
333.15 K, 20000 kPa, x2 = 0.6999	812.3 ± 0.7	–
333.15 K, 20000 kPa, x2 = 0.7999	805 ± 0.7	–
333.15 K, 20000 kPa, x2 = 0.9	797.2 ± 0.7	–
333.15 K, 30000 kPa, x2 = 0	865.3 ± 0.7	–
333.15 K, 30000 kPa, x2 = 0.1	858.6 ± 0.7	–
333.15 K, 30000 kPa, x2 = 0.1989	852.5 ± 0.7	–
333.15 K, 30000 kPa, x2 = 0.3011	846.2 ± 0.7	–
333.15 K, 30000 kPa, x2 = 0.4002	840.1 ± 0.8	–
333.15 K, 30000 kPa, x2 = 0.5001	834.4 ± 0.8	–
333.15 K, 30000 kPa, x2 = 0.5997	827.1 ± 0.8	–
333.15 K, 30000 kPa, x2 = 0.6999	819.9 ± 0.8	–
333.15 K, 30000 kPa, x2 = 0.7999	812.7 ± 0.8	–
333.15 K, 30000 kPa, x2 = 0.9	805 ± 0.8	–
333.15 K, 40000 kPa, x2 = 0	871.6 ± 0.8	–
333.15 K, 40000 kPa, x2 = 0.1	865.1 ± 0.8	–
333.15 K, 40000 kPa, x2 = 0.1989	859.1 ± 0.8	–
333.15 K, 40000 kPa, x2 = 0.3011	852.9 ± 0.8	–
333.15 K, 40000 kPa, x2 = 0.4002	846.8 ± 0.8	–
333.15 K, 40000 kPa, x2 = 0.5001	841.2 ± 0.8	–
333.15 K, 40000 kPa, x2 = 0.5997	834.1 ± 0.8	–
333.15 K, 40000 kPa, x2 = 0.6999	826.9 ± 0.8	–
